The values below come from ChEMBL document CHEMBL5465560, “Selectivity Literature for EUbOPEN Chemogenomic Library” (2024).

Assay [1] addresses T1, Ephrin type-A receptor 8 (Homo sapiens) (UniProt P29322).
T1 sequence (whole entry): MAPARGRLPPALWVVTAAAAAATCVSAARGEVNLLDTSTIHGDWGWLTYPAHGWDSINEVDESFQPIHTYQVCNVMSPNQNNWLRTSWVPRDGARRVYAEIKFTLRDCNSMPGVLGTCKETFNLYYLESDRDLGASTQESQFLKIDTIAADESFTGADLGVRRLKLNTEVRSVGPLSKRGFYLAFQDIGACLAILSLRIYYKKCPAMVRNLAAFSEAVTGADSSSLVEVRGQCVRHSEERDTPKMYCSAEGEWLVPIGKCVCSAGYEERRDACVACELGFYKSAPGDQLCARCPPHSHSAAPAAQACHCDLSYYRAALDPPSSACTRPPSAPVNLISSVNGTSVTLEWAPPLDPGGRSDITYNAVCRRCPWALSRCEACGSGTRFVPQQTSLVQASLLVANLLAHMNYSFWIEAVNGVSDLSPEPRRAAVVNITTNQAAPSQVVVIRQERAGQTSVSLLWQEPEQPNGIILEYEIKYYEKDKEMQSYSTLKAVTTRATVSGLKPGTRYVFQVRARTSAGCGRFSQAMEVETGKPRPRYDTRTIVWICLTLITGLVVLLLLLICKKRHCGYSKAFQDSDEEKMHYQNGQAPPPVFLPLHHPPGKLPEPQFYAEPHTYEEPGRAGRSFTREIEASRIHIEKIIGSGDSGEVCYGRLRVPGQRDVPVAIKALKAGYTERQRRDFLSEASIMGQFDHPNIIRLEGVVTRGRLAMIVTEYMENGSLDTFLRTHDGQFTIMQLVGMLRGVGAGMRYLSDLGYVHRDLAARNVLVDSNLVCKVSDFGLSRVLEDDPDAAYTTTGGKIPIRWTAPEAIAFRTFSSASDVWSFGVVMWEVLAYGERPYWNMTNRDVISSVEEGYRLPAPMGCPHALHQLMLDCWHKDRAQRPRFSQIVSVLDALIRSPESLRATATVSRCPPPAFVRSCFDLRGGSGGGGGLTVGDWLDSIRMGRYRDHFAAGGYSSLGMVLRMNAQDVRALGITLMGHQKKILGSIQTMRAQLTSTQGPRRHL
Description: Selectivity interaction (KinomeScan (DiscoverX)) EUB0000092b EPHA8. Particulars: at 10 µM.

The target in assay [2] is Vascular endothelial growth factor receptor 3 (Homo sapiens, UniProt P35916). The assay is described as follows: Selectivity interaction (Kinase screening (Nanosyn)) EUB0000604a FLT4.
For assay [3], the target named is T2, Dual specificity mitogen-activated protein kinase kinase 6 (Homo sapiens) (UniProt P52564).
T2 sequence (whole entry): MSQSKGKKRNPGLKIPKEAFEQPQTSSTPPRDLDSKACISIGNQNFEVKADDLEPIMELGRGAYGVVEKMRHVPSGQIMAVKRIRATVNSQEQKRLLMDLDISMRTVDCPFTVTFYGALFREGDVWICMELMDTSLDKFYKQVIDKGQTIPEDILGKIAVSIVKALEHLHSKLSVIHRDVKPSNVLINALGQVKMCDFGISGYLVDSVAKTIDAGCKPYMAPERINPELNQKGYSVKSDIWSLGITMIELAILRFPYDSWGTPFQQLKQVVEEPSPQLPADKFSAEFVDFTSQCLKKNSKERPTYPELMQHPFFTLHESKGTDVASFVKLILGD
The assay is described as follows: (§1) Selectivity interaction (LanthaScreen Eu Kinase Binding Assay) EUB0001632a MAP2K6. The note with it: at 10 µM. (In TR-FRET formats the signal depends on donor and acceptor labels being close together.)

The test system of assay [4] is Dual specificity mitogen-activated protein kinase kinase 6 (Homo sapiens), P52564 [S207E,T211E]. The assay is described as §1. Particulars: at 10 µM.
Assay [5] addresses Protein arginine N-methyltransferase 5 (Homo sapiens, UniProt O14744). The note with it: at 10 µM.
Assay [6] has as its target Protein kinase C eta type (Homo sapiens) (UniProt P24723). The assay is described as follows: Selectivity interaction (KinomeScan (DiscoverX)) EUB0000607a PRKCH. Particulars: at 10 µM.
Assay [7] addresses MAP/microtubule affinity-regulating kinase 3 (Homo sapiens) (UniProt P27448). The assay is described as follows: Selectivity interaction (Kinase panel (DSF assay)) EUB0001559a MARK3. (Differential scanning fluorimetry follows unfolding on heating by fluorescence.)
Assay [8] has as its target T3, Ephrin type-A receptor 1 (Homo sapiens) (UniProt P21709).
T3 sequence (whole entry): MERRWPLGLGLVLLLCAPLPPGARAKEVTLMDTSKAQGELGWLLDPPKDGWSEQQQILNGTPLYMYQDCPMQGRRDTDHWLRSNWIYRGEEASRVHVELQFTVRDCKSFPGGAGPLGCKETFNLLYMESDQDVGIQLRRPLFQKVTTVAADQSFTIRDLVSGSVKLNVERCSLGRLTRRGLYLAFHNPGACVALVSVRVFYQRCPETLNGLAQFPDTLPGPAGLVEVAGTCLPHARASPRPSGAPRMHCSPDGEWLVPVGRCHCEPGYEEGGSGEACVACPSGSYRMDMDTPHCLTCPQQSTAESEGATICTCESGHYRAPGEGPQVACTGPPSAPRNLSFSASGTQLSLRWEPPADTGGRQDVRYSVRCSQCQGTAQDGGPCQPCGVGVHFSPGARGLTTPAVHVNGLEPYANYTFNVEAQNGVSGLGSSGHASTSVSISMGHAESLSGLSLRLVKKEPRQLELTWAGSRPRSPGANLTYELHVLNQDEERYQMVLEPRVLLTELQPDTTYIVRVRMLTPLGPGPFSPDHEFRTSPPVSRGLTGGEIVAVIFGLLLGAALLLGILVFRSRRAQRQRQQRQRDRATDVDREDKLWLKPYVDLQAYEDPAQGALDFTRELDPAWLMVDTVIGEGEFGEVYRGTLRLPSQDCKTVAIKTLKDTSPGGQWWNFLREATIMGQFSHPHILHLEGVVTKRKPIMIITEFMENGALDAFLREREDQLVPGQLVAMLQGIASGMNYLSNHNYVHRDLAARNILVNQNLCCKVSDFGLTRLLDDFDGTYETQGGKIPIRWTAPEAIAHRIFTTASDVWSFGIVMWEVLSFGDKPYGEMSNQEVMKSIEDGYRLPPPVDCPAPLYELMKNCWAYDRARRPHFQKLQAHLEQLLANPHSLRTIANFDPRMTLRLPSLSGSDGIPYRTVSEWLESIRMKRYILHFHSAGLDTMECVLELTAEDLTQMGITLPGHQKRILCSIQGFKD
Description: Selectivity interaction (KinomeScan (DiscoverX)) EUB0000618a EPHA1. The note with it: at 10 µM.

Chain of Dual specificity mitogen-activated protein kinase kinase 6 (Homo sapiens), P52564 [S207E,T211E] (P52564 whole entry S207E/T211E): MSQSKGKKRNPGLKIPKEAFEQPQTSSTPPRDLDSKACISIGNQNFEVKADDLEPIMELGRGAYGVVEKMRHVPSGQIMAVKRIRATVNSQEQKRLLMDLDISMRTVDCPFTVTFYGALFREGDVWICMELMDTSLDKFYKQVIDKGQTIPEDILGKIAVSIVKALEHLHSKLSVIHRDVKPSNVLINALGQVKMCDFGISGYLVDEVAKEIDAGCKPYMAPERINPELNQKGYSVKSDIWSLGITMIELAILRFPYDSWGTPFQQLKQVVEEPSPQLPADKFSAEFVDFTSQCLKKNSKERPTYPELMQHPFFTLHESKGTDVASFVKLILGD
Chain of MAP/microtubule affinity-regulating kinase 3 (Homo sapiens) (P27448 whole entry, looked up): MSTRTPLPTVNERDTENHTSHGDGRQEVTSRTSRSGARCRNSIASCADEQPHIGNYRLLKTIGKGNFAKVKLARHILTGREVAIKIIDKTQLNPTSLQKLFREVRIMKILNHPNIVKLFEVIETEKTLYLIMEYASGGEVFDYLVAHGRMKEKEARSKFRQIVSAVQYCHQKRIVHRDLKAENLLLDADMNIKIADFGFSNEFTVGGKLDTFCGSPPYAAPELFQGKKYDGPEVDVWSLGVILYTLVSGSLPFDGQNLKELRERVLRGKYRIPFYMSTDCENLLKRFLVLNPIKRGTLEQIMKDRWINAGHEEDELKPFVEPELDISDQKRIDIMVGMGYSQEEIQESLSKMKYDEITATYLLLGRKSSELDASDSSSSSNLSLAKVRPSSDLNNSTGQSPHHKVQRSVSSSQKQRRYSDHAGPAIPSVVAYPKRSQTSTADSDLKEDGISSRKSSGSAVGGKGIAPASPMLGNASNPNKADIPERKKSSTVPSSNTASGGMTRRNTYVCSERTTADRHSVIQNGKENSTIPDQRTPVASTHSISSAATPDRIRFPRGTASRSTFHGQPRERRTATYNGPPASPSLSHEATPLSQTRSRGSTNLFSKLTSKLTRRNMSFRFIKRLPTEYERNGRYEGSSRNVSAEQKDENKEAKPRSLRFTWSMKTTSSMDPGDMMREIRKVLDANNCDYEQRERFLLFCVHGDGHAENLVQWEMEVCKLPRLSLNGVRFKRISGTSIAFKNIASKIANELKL
Chain of Protein kinase C eta type (Homo sapiens) (P24723 whole entry): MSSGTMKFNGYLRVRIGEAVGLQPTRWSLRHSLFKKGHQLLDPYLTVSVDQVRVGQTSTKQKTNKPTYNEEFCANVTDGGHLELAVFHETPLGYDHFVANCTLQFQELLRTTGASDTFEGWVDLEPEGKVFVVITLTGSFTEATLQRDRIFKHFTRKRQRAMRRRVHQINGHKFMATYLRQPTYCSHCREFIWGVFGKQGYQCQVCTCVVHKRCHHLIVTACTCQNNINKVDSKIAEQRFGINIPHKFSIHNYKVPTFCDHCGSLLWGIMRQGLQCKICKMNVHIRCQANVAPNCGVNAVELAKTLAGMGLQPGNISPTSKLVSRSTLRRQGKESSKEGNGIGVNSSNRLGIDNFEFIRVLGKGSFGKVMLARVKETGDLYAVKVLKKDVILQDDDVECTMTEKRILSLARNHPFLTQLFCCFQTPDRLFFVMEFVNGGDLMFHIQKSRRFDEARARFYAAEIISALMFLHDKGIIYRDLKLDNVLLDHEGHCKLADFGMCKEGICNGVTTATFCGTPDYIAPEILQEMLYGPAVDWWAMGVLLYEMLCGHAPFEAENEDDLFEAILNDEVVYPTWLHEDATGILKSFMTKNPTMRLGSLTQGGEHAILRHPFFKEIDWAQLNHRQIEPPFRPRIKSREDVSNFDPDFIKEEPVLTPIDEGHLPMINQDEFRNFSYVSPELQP
Chain of Vascular endothelial growth factor receptor 3 (P35916 whole entry): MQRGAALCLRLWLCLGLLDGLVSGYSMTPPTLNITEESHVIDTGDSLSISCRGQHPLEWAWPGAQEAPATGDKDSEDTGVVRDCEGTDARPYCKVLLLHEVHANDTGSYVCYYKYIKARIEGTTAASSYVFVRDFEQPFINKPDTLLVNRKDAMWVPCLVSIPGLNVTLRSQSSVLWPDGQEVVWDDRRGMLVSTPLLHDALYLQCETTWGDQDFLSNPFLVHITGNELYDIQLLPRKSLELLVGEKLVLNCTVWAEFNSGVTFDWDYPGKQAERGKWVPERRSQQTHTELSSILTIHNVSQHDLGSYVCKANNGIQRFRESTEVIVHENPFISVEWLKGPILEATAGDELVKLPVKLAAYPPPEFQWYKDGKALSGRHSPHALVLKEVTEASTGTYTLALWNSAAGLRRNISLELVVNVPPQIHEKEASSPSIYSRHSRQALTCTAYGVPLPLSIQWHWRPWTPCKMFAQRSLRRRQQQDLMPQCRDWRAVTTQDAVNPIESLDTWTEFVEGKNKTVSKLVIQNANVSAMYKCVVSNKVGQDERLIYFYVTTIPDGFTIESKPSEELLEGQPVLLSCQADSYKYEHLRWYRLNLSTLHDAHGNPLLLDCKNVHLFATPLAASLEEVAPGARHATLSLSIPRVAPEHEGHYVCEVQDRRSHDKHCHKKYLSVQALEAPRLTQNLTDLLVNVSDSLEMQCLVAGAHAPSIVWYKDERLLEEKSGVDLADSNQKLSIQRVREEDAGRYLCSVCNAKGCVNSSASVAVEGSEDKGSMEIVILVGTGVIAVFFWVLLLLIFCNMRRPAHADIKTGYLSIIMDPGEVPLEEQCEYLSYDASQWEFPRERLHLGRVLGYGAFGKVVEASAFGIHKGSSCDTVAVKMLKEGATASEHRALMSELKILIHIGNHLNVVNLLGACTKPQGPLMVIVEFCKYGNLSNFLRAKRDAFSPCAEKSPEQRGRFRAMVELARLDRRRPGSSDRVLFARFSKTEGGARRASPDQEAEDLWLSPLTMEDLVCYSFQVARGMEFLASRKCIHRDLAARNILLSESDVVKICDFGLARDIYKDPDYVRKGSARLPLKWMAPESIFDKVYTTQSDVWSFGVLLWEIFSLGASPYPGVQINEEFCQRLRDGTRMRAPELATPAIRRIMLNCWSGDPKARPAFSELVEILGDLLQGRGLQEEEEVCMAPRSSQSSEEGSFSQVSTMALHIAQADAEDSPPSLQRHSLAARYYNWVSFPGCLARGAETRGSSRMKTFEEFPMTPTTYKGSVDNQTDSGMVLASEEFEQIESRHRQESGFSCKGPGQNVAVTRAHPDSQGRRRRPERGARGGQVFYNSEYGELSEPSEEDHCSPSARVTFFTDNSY
Chain of Protein arginine N-methyltransferase 5 (O14744 whole entry): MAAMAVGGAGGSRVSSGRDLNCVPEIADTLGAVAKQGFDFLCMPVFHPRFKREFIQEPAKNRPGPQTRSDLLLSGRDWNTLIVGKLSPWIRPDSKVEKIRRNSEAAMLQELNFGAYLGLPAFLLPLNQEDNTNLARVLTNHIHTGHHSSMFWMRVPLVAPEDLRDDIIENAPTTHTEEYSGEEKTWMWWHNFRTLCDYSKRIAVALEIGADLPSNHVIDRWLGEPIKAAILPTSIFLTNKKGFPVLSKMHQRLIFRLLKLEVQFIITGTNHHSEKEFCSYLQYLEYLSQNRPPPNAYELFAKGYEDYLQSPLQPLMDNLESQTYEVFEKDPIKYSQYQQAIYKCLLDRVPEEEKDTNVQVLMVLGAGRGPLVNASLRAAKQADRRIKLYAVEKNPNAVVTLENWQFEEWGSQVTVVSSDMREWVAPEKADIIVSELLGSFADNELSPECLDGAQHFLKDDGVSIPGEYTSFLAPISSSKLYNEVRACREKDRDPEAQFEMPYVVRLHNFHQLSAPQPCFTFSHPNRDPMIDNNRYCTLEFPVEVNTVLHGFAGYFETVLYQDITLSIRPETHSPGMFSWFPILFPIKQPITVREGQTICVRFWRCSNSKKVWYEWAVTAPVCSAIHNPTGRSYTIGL

In turn, `CCC(=O)N1CCN(c2ccc(-n3c(=O)ccc4cnc5ccc(-c6cnc7ccccc7c6)cc5c43)cc2C(F)(F)F)CC1` returned a % of control in assay [1] of 71%. With `Cc1cnc(Nc2ccc(F)cc2Cl)nc1-c1c[nH]c(C(=O)N[C@H](CO)c2cccc(Cl)c2)c1`, the % of inhibition in assay [2] was found to be 8%.

In the case of `Cn1cc(-n2cnc3c(NCc4nc5cc(Cl)c(Cl)cc5[nH]4)nc(N4CCOCC4)nc32)cn1`, the % of inhibition in assay [3] is -35%; in assay [4], -8.6%.

With `CNCCN1CCC(c2cc(CN(C)C(=O)c3cccc(Oc4ccccc4)c3)ccn2)CC1`, in assay [5], the % activity is over 90%.

In assay [6], `CNC(=O)Nc1ccc(-c2nc(N3CC4CCC(C3)O4)c3cnn(C4CCC5(CC4)OCCO5)c3n2)cc1` displayed a % of control of 91%.

`CN(C(=O)c1cnn2cccnc12)c1cc2c(cc1N1CCOCC1)C(=O)N(C[C@@H](F)C(C)(C)O)C2` gave a dTM in assay [7] of 0.7 K. `O[C@H]1CC[C@H](Nc2ncc3nc(Nc4c(F)cc(F)cc4F)n([C@H]4CCOC4)c3n2)CC1` gave a % of control in assay [8] of 100%.
